# According to paper PMC7215599, “Synthesis, Antitumor Evaluation, Molecular Modeling and Quantitative Structure–Activity Relationship (QSAR) of Novel 2-[(4-Amino-6-N-substituted-1,3,5-triazin-2-yl)methylthio]-4-chloro-5-methyl-N-(1H-benzo[d]imidazol-2(3H)-ylidene)Benzenesulfonamides” (International Journal of Molecular Sciences, 2020):
# What was measured:
# [1] = tested on: HeLa (cervical cancer) cell line; assay: MTT cell viability assay, HeLa; assay type: cell-based, human; conditions: 72 h, MTT, 1-100 µM, mean ± SD
# [2] = tested on: MCF-7 (breast cancer) cell line; assay: MTT cell viability assay, MCF-7; assay type: cell-based, human; conditions: for IC50: MTT, 72 h, 1-100 µM, mean ± SD
# [3] = tested on: HCT-116 (colon cancer) cell line; assay: MTT cell viability assay, HCT-116; assay type: cell-based, human; conditions: for IC50: MTT, 72 h, 1-100 µM, mean ± SD
# [4] = tested on: HCT-116, MCF-7 and HeLa cell lines; assay: MTT cell viability assay, all tested cancer cell lines taken together; assay type: cell-based; conditions: Homo sapiens; range over HCT-116, MCF-7 and HeLa; read-out: IC50 toward all of the tested cell lines (range over the lines)
# Description: Compounds 6–49 were evaluated in vitro for their effects on the viability of the three human cancer cell lines: HCT-116 (colon cancer), MCF-7 (breast cancer) and HeLa (cervical cancer) as well as the non-cancerous keratinocyte cell line (HaCaT). The concentration required for 50% inhibition of cell viability IC50 was calculated and compared with the reference drug cisplatin, the results are shown in Table 1.
# Cell lines: colon cancer (HCT-116), breast cancer (MCF-7), cervical cancer (HeLa), the human keratinocyte cell line (HaCaT); NT—not tested; IC50 was measured at concentrations 1, 10, 25, 50, and 100 µM. IC50 values are expressed as the mean ± SD of at last three independent experiments.
# All chemicals, if not stated otherwise, were obtained from Sigma–Aldrich (St. Louis, MO, USA). The HCT-116 cell lines was purchased from ATCC (ATCC-No: CCL-247), while the MCF-7, HeLa and HaCaT cell lines were purchased from Cell Lines Services (Eppelheim, Germany). Cells were cultured in Dulbecco’s modified Eagle’s medium (DMEM) supplemented with 10% fetal bovine serum, 2 mM glutamine, 100 units/mL penicillin, and 100 µg/mL streptomycin. Cultures were maintained in a humidified atmosphere with 5% carbon dioxide at 37 °C in an incubator (Heraceus, HeraCell).
# Cell viability was examined using the MTT (3-(4,5-dimethylthiazol-2-yl)-2,5-diphenyltetrazolium bromide) assay. Cells were seeded in 96-well plates at a density of 5 × 10^3 cells/well and treated for 72 h with the tested compounds in the concentration range of 1–100 µM (1, 10, 25, 50 and 100 µM). Then, MTT (0.5 mg/mL) was added to the medium and cells were further incubated for 2 h at 37 °C. In the next stage, cells were lysed with DMSO and the absorbance of the formazan solution was measured at 550 nm with a plate reader (1420 multilabel counter, Victor, Jügesheim, Germany). The experiment was performed in triplicate. Values are expressed as the mean ± SD of at least three independent experiments. Cisplatin was used as a positive control.
# [5] = tested on: HaCaT (non-cancerous keratinocyte cell line); assay: MTT cell viability assay, HaCaT; assay type: cell-based; conditions: Homo sapiens, 72 h, 1-100 µM, mean ± SD, non-cancerous cells
"IC50 ([1]; Homo sapiens, HeLa) [µM]","IC50 ([2]; Homo sapiens, MCF7, 72 h) [µM]","IC50 ([3]; Homo sapiens, HCT-116, 72 h) [µM]",IC50 [4] [µM],IC50 [1] [µM],IC50 [2] [µM],IC50 [3] [µM],Compound,IC50 [5] [µM],selectivity ratio HaCaT/MCF-7 ([2]; ratio of IC50 values),selectivity ratio HaCaT/HCT-116 ([3]; ratio of IC50 values)
17 ± 1,17 ± 0.5,16 ± 0.5,7 to 19,–,–,–,"Cc1cc(S(=O)(=O)N=c2[nH]c3ccccc3[nH]2)c(SCc2nc(N)nc(N3CCN(c4ccc(Cl)cc4)CC3)n2)cc1Cl [Compound 23, 2-[{4-Amino-6-[4-(4-chlorophenyl)piperazin-1-yl]-1,3,5-triazin-2-yl}methylthio]-N-(1H-benzo[d]imidazol-2(3H)-ylidene)-4-chloro-5-methylbenzenesulfonamide]",35 ± 1,–,–
30 ± 1,25 ± 1,17 ± 1,17 to 30,–,–,–,"Cc1cc(S(=O)(=O)N=c2[nH]c3ccc(F)cc3[nH]2)c(SCc2nc(N)nc(N3CCc4ccccc43)n2)cc1Cl [Compound 34, 2-{[4-Amino-6-(indolin-1-yl)-1,3,5-triazin-2-yl]metylthio}-4-chloro-N-(5-fluoro-1H-benzo[d]imidazol-2(3H)-ylidene)-5-methylbenzenesulfonamide]",41 ± 1,–,–
24 ± 1,23 ± 1,18 ± 1,17 to 30,–,–,–,"Cc1cc(S(=O)(=O)N=c2[nH]c3ccc(Cl)cc3[nH]2)c(SCc2nc(N)nc(Nc3ccccc3)n2)cc1Cl [Compound 42, 2-{[4-Amino-6-(phenylamino)-1,3,5-triazin-2-yl]methylthio}-4-chloro-N-(5-chloro-1H-benzo[d]imidazol-2(3H)-ylidene)-5-methylbenzenesulfonamide]",37 ± 1,–,–
11 to 18,17 to 19,7 to 11,7 to 19,18 ± 1,15 ± 1,7 ± 0.1,"Cc1cc(S(=O)(=O)N=c2[nH]c3ccc(Cl)cc3[nH]2)c(SCc2nc(N)nc(N3CCN(c4ccc(F)cc4)CC3)n2)cc1Cl [Compound 46, 2-[{4-Amino-6-[4-(4-fluorophenyl)piperazin-1-yl]-1,3,5-triazin-2-yl}metylthio]-4-chloro-N-(5-chloro-1H-benzo[d]imidazol-2(3H)-ylidene)-5-methylbenzenesulfonamide]",28 ± 1,2,4
